# Assays:
# Assay in all cases: KINOMEscan competition binding
# Details in all cases: compound 10.0 µM
# ACVR1 (human) = ACVR1 (human) (UniProt Q04771)
# ADCK3 (human) = ADCK3 (human) (UniProt Q8NI60)
# AKT2 (human) = AKT2 (human) (UniProt P31751)
# CAMK1D (human) = CAMK1D (human) (UniProt Q8IU85)
# CAMK2A (human) = CAMK2A (human) (UniProt Q9UQM7)
# CDC42BPG (human) = CDC42BPG (human) (UniProt Q6DT37)
# CDK4 CCND1 (human) = CDK4 CCND1 (human) (UniProt P11802+P24385)
# CDK4 CCND3 (human) = CDK4 CCND3 (human) (UniProt P11802+P30281)
# CDKL5 (human) = CDKL5 (human) (UniProt O76039)
# CLK3 (human) = CLK3 (human) (UniProt P49761)
# EPHA5 (human) = EPHA5 (human) (UniProt P54756)
# FGR (human) = FGR (human) (UniProt P09769)
# Chain of FGR (human) (P09769 whole entry, looked up): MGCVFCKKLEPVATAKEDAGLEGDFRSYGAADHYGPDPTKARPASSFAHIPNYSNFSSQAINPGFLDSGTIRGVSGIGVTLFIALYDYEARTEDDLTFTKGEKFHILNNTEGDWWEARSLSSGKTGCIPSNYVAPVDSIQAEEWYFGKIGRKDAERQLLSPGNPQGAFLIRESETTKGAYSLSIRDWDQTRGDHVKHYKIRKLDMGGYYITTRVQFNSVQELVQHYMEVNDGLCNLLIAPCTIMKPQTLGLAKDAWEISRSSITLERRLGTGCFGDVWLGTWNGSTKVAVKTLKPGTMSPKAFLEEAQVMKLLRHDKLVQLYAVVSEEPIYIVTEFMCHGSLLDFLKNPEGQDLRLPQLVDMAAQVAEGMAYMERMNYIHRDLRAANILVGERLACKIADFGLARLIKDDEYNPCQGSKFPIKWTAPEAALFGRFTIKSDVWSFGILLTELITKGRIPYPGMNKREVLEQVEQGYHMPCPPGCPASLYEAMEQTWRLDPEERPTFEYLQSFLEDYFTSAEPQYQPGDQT
# GRK7 (human) = GRK7 (human) (UniProt Q8WTQ7)
# HIPK4 (human) = HIPK4 (human) (UniProt Q8NE63)
# Chain of HIPK4 (human) (Q8NE63 whole entry, looked up): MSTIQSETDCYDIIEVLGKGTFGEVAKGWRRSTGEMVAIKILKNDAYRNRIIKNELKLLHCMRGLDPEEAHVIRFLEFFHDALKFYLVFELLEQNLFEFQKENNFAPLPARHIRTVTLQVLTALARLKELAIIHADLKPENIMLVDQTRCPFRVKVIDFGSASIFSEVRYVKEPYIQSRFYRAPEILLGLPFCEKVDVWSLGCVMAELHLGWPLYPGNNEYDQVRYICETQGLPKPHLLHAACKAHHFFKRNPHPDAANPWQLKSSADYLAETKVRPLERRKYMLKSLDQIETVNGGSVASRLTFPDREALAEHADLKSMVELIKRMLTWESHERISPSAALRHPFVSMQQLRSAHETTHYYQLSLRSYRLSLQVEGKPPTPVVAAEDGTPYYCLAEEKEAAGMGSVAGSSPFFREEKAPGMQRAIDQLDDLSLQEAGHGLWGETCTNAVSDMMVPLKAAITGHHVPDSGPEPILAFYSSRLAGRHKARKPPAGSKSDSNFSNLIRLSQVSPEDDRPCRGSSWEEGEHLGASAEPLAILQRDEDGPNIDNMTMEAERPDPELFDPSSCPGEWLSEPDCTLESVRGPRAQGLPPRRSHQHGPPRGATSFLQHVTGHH
# [1] = molecular target: JAK1 JH1 catalytic (human) (UniProt P23458)
# [2] = molecular target: JAK2 JH1 catalytic (human) (UniProt O60674)
# Chain of JAK2 JH1 catalytic (human) (O60674 whole entry, looked up): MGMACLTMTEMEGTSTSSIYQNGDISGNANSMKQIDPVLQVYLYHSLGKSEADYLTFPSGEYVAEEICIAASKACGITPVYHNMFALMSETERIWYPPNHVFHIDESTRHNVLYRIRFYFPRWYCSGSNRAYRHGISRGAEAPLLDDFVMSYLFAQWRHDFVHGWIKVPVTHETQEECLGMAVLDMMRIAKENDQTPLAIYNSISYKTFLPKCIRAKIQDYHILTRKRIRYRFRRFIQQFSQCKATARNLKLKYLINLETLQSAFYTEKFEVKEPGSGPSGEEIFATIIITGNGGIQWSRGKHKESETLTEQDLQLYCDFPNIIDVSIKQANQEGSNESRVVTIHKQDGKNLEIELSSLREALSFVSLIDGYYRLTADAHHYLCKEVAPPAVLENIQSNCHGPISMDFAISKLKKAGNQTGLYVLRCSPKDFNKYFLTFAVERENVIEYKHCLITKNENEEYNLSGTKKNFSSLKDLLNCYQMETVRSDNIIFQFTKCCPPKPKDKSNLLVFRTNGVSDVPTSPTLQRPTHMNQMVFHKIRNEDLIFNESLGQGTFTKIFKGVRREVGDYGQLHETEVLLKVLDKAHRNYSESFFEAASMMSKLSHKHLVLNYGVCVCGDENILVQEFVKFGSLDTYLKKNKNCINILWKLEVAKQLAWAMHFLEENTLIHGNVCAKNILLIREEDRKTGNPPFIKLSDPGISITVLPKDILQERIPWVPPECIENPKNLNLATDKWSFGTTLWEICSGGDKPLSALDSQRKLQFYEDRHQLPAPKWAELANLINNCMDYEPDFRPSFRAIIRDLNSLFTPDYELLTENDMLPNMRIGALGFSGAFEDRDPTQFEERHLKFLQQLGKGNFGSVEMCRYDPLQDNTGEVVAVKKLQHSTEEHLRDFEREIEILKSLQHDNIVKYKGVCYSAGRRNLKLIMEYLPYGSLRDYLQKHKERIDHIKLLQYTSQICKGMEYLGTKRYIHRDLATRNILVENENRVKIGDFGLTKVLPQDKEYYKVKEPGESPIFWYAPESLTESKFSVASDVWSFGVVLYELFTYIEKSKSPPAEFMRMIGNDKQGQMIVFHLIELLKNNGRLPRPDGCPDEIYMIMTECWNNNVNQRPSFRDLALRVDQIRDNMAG
# [3] = tested on: KIT (human), P10721 [V559D/V654A]
# MAP3K3 (human) = MAP3K3 (human) (UniProt Q99759)
# MAP3K4 (human) = MAP3K4 (human) (UniProt Q9Y6R4)
# MAPK1 (human) = MAPK1 (human) (UniProt P28482)
# MAPK6 (human) = MAPK6 (human) (UniProt Q16659)
# MARK1 (human) = MARK1 (human) (UniProt Q9P0L2)
# MYLK3 (human) = MYLK3 (human) (UniProt Q32MK0)
# Chain of MYLK3 (human) (Q32MK0 whole entry, looked up): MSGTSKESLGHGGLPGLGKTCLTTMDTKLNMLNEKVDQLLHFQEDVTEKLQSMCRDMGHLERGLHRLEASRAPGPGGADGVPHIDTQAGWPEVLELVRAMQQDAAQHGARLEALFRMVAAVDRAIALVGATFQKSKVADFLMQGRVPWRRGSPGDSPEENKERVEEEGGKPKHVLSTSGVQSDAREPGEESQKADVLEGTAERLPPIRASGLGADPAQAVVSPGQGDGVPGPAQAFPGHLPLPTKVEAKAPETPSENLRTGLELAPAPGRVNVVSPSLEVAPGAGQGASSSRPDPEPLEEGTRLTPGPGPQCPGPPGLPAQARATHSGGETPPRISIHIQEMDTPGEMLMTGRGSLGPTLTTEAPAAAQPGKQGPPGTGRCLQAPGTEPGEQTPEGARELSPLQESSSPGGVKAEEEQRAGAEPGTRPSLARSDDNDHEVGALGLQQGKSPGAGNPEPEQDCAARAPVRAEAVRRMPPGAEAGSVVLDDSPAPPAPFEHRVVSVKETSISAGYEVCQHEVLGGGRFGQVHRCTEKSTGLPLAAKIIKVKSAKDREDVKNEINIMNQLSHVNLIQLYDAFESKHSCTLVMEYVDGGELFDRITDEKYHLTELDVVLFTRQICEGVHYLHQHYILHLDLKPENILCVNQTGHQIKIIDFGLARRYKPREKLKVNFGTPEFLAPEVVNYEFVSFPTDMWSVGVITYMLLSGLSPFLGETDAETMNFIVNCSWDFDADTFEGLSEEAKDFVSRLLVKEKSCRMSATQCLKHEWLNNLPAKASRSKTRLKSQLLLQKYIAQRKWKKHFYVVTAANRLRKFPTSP
# MYO3A (human) = MYO3A (human) (UniProt Q8NEV4)
# NEK1 (human) = NEK1 (human) (UniProt Q96PY6)
# NTRK2 (human) = NTRK2 (human) (UniProt Q16620)
# PI4KB (human) = PI4KB (human) (UniProt Q9UBF8)
# PIM3 (human) = PIM3 (human) (UniProt Q86V86)
# PRKACA (human) = PRKACA (human) (UniProt P17612)
# PRKCQ (human) = PRKCQ (human) (UniProt Q04759)
# Chain of PRKCQ (human) (Q04759 whole entry, looked up): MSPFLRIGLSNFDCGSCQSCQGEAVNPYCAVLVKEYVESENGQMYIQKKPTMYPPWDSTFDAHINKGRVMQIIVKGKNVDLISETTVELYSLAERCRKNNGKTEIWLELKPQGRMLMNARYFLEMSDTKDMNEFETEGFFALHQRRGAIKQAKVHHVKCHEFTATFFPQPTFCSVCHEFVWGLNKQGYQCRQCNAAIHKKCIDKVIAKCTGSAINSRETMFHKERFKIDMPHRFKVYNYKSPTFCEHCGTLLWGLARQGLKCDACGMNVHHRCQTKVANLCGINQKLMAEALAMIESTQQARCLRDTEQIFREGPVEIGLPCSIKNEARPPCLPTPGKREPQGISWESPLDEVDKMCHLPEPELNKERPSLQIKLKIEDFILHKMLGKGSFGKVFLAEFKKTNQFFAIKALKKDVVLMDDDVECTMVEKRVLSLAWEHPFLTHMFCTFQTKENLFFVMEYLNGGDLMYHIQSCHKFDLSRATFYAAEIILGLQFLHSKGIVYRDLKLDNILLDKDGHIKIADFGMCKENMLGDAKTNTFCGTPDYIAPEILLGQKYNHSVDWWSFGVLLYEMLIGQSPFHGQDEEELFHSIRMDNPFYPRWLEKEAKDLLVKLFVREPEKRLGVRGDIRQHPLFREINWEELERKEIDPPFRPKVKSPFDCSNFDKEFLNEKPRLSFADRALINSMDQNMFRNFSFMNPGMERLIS
# PTK2B (human) = PTK2B (human) (UniProt Q14289)
# RIOK3 (human) = RIOK3 (human) (UniProt O14730)
# RPS6KA5 KD2 (human) = RPS6KA5 KD2 (human) (UniProt O75582)
# RPS6KA6 KD2 (human) = RPS6KA6 KD2 (human) (UniProt Q9UK32)
# RPS6KB1 (human) = RPS6KB1 (human) (UniProt P23443)
# Chain of RPS6KB1 (human) (P23443 whole entry, looked up): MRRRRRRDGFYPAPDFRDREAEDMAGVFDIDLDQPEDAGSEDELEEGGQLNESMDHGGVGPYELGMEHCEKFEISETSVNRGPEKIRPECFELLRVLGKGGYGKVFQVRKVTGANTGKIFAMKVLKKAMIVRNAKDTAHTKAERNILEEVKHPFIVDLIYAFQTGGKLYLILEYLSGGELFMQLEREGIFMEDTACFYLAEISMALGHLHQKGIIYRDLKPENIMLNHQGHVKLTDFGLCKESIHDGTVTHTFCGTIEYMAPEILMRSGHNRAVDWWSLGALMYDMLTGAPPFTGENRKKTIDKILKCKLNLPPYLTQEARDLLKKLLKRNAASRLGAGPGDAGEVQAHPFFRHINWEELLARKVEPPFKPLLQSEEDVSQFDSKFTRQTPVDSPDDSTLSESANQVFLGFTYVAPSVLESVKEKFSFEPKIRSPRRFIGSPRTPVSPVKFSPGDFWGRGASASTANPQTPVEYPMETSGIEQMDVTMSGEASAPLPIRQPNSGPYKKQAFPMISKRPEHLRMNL
# STK32B (human) = STK32B (human) (UniProt Q9NY57)
# STK39 (human) = STK39 (human) (UniProt Q9UEW8)
# STK4 (human) = STK4 (human) (UniProt Q13043)
# VRK2 (human) = VRK2 (human) (UniProt Q86Y07)
# WEE2 (human) = WEE2 (human) (UniProt P0C1S8)
# Chain of CAMK1D (human) (Q8IU85 whole entry, looked up): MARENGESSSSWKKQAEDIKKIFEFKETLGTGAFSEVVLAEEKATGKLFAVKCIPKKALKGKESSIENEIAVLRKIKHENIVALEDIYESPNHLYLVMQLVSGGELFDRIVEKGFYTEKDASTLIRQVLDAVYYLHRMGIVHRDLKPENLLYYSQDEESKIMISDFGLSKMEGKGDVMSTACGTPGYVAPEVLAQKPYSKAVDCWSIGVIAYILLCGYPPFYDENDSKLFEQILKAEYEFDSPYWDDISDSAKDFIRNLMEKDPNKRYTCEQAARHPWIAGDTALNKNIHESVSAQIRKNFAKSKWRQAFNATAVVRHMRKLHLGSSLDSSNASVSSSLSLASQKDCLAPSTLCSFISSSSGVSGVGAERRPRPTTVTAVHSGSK
smiles,measurement,setting,value
COc1cc2ncnc(-n3nc(-c4ccccn4)nc3N)c2cc1OC,"kinase still bound, per cent of control",ACVR1 (human),0.2%
same,"kinase still bound, per cent of control",ADCK3 (human),10%
same,"kinase still bound, per cent of control",AKT2 (human),42%
same,"kinase still bound, per cent of control",CAMK1D (human),34%
same,"kinase still bound, per cent of control",CAMK2A (human),44%
same,"kinase still bound, per cent of control",CDC42BPG (human),96%
same,"kinase still bound, per cent of control",CDK4 CCND1 (human),47%
same,"kinase still bound, per cent of control",CDK4 CCND3 (human),60%
same,"kinase still bound, per cent of control",CDKL5 (human),0.3%
same,"kinase still bound, per cent of control",CLK3 (human),3.6%
same,"kinase still bound, per cent of control",EPHA5 (human),19%
same,"kinase still bound, per cent of control",FGR (human),36%
same,"kinase still bound, per cent of control",GRK7 (human),11%
same,"kinase still bound, per cent of control",HIPK4 (human),6%
same,"kinase still bound, per cent of control",[1],100%
same,"kinase still bound, per cent of control",[2],26%
same,"kinase still bound, per cent of control",[3],82%
same,"kinase still bound, per cent of control",MAP3K3 (human),48%
same,"kinase still bound, per cent of control",MAP3K4 (human),100%
same,"kinase still bound, per cent of control",MAPK1 (human),56%
same,"kinase still bound, per cent of control",MAPK6 (human),85%
same,"kinase still bound, per cent of control",MARK1 (human),86%
same,"kinase still bound, per cent of control",MYLK3 (human),100%
same,"kinase still bound, per cent of control",MYO3A (human),72%
same,"kinase still bound, per cent of control",NEK1 (human),36%
same,"kinase still bound, per cent of control",NTRK2 (human),47%
same,"kinase still bound, per cent of control",PI4KB (human),9.8%
same,"kinase still bound, per cent of control",PIM3 (human),7.6%
same,"kinase still bound, per cent of control",PRKACA (human),100%
same,"kinase still bound, per cent of control",PRKCQ (human),100%
same,"kinase still bound, per cent of control",PTK2B (human),75%
same,"kinase still bound, per cent of control",RIOK3 (human),32%
same,"kinase still bound, per cent of control",RPS6KA5 KD2 (human),33%
same,"kinase still bound, per cent of control",RPS6KA6 KD2 (human),6.2%
same,"kinase still bound, per cent of control",RPS6KB1 (human),2.6%
same,"kinase still bound, per cent of control",STK32B (human),100%
same,"kinase still bound, per cent of control",STK39 (human),80%
same,"kinase still bound, per cent of control",STK4 (human),61%
same,"kinase still bound, per cent of control",VRK2 (human),9.8%
same,"kinase still bound, per cent of control",WEE2 (human),100%
